pIC50: −log10 of the molar value.
Experiments:
[1] = system: Akt2 (Ser474) in cytosol and mitochondria; test: Phosphorylated Akt in cytosol and mitochondrial extracts by Western blotting; type: cell-based, Human; conditions: pretreatment with 17-AAG; cytosol and mitochondria
Description: Subcellular and submitochondrial fractionation. Mitochondrial fractions were isolated using an ApoAlertTM cell fractionation kit (CLONTECH), as described. Submitochondrial fractions comprising outer membrane (OM), inner membrane (IM), inter-membrane space (IMS) and matrix were prepared as described.

[2] = system: Ser473-phosphorylated Akt (pAkt); test: Ser473-phosphorylated Akt in patient-derived organotypic cultures; type: cell-based, Human; conditions: tumor organoids, 48 h
Description: Organotypic cultures. Short-term organotypic cultures from the different patient samples were established as described previously. Briefly, precise thick tissue slices (300 μm) were obtained from each case by vibratome serial cutting (VT1200, Leica Microsystems, Milan, Italy), and cultured in six-well plates on organotypic inserts (Millicell PICM ORG, Merck Millipore) for up to 48 h in 1 ml of Ham-F12 complete medium supplemented with vehicle (DMSO, 2.5 μl), pan-PI3K inhibitor LY294002 (50 or 100 μM) or PX-886 (2.5, 5 or 10 μM), or mitochondrial-targeted small molecule Heat Shock Protein-90 (Hsp90) inhibitor, 10 Gamitrinib (GA mitochondrial matrix inhibitor, 10 or 25 μM), or the combination of PX-886 plus Gamitrinib (each agent used at 10 μM). At the end of the experiment, one tissue slice per condition was formalin-fixed and paraffin-embedded (FFPE), and processed for morphological and immunohistochemical analysis. An additional tissue slice collected at the end of the experiment was embedded in optimal cutting temperature, and snap-frozen for molecular or immunofluorescence studies.

LN229 or PC3 cells = test: Analysis of bioenergetics (ATP, glucose, lactate, oxygen consumption); type: cell-based, Human; conditions: PX-866 (10 μM), AZD6482 (10 μM) or GDC0941 (2 μM) for 48 h
LN229 cells = test: High-throughput screening: cell viability (resazurin), compounds with DMSO or Gamitrinib; type: cell-based, Human; conditions: for inhibition at 0.000128 µM / inhibition at 0.00064 µM / inhibition at 0.0032 µM / inhibition at […] / inhibition at 0.08 µM / inhibition at 0.4 µM / inhibition at 2 µM / inhibition at 10 µM: Homo sapiens, LN-229, read-out: Percent inhibition; for inhibition at 0.000128 µM: compound 0.000128 uM + DMSO (control); for inhibition at 0.00064 µM: compound 0.00064 uM + DMSO (control); for inhibition at 0.0032 µM: compound 0.0032 uM + DMSO (control); for inhibition at […]: compound 0.016 uM + DMSO (control); for inhibition at 0.08 µM: compound 0.08 uM + DMSO (control); for inhibition at 0.4 µM: compound 0.4 uM + DMSO (control); for inhibition at 2 µM: compound 2 uM + DMSO (control); for inhibition at 10 µM: compound 10 uM + DMSO (control)
Description: High-throughput screening and synergy experiments. Compounds for the molecular targeted cancer therapeutics were either purchased from SelleckChem or acquired under Material Transfer Agreement (MTA) with the Wistar Institute MTA. Compounds were suspended in DMSO. The purity and identity of the compounds was confirmed by LC/MS for a fraction of the compounds. Source plates with a 10 point dilution series (5-fold dilutions, ranging from 10-0.0001 μmol/L) were prepared for screening. […] Cell viability was determined by the addition of resazurin to a final concentration of 50 μM and incubation for 8 h. Fluorescence intensity (excitation, 560 nm, emission, 590 nm) was determined on an Envision Xcite Multilabel Reader (Perkin-Elmer), and the fractional growth inhibition was determined by normalizing assay wells to the aggregated average responses of positive control (10 μM doxorubicin) and negative control (0.2% DMSO) treatments (n=12).

Akt phosphorylation = Akt phosphorylation in tumor cell lines by Western blotting; type: cell-based, Human; conditions: PC3 cells, AZD6482 (10 μM), (0.4-2 μM) or BKM120 (0.4-2 μM), 48 h
class I PI3K isoforms = conditions: cited from earlier work
[3] = compound 0.000128 uM + Gamitrinib (1 μM)
[4] = compound 0.00064 uM + Gamitrinib (1 μM)
[5] = compound 0.0032 uM + Gamitrinib (1 μM)
[6] = compound 0.08 uM + Gamitrinib (1 μM)
[7] = compound 0.4 uM + Gamitrinib (1 μM)
[8] = compound 2 uM + Gamitrinib (1 μM)
[9] = compound 10 uM + Gamitrinib (1 μM)
[10] = compound 2.56E−05 uM + DMSO (control)
[11] = compound 2.56E−05 uM + Gamitrinib (1 μM)
[12] = compound 5.12E−06 uM + DMSO (control)
[13] = compound 5.12E−06 uM + Gamitrinib (1 μM)
[14] = compound […] + Gamitrinib (1 μM)

Structure (SMILES) | inhibition at 0.000128 µM (LN229 cells) | inhibition at 0.00064 µM (LN229 cells) | inhibition at 0.0032 µM (LN229 cells) | inhibition at […] (LN229 cells) | inhibition at 0.08 µM (LN229 cells) | inhibition at 0.4 µM (LN229 cells) | inhibition at 2 µM (LN229 cells) | inhibition at 10 µM (LN229 cells) | Percent inhibition (LN229 cells; [3]) | Percent inhibition (LN229 cells; [4]) | Percent inhibition (LN229 cells; [5]) | Percent inhibition (LN229 cells; [6]) | Percent inhibition (LN229 cells; [7]) | Percent inhibition (LN229 cells; [8]) | Percent inhibition (LN229 cells; [9]) | Percent inhibition (LN229 cells; [10]) | Percent inhibition (LN229 cells; [11]) | Percent inhibition (LN229 cells; [12]) | Percent inhibition (LN229 cells; [13]) | Percent inhibition (LN229 cells; [14]) | further results
C=CCNC1=C2C[C@@H](C)C[C@H](OC)[C@H](O)[C@@H](C)/C=C(\C)[C@H](OC(N)=O)[C@@H](OC)/C=C\C=C(/C)C(=O)NC(=CC1=O)C2=O [17-AAG, 17-(allylamino)-17-demethoxygeldanamycin] |  |  |  |  |  |  |  |  |  |  |  |  |  |  |  |  |  |  |  |  | accumulation of phosphorylated Akt in response to PX-866 [1]: abolished the accumulation of phosphorylated Akt; phosphorylation of Akt on Ser473 [2]: had no effect
Cc1cc([C@@H](C)Nc2ccccc2C(=O)O)c2nc(N3CCOCC3)cc(=O)n2c1 [AZD6482] | 11.8% | -10.5% | -4.1% | 10.8% | 21.7% | -7.43% | 5.91% | 43.4% | 123.03% | 128.16% | 123.40% | 111.71% | 114.08% | 133.90% | 141.10% | −2.03% | 119.70% | 3.23% | 129.84% | 118.13% | ATP production (LN229 or PC3 cells): reduced ATP production; glucose utilization (LN229 or PC3 cells): less glucose utilization; lactate production (LN229 or PC3 cells): less; Akt phosphorylation (Akt phosphorylation): Akt phosphorylation was observed
Cn1c(=O)n(-c2ccc(C(C)(C)C#N)cc2)c2c3cc(-c4cnc5ccccc5c4)ccc3ncc21 [BEZ235] | -21.4% | 23.8% | 60.7% | 74.6% | 62.6% | 65.1% | 67.6% | 71.6% | 122.82% | 127.29% | 134.66% | 133.41% | 140.20% | 137.11% | 141.44% | −9.35% | 121.84% | −7.25% | 119.42% | 145.76% | 
Nc1cc(C(F)(F)F)c(-c2cc(N3CCOCC3)nc(N3CCOCC3)n2)cn1 [BKM120] | 4.38% | 16.2% | 3.42% | 8.78% | 17.7% | 50.4% | 54.9% | 61.7% | 132.78% | 130.27% | 140.77% | 153.91% | 150.75% | 151.13% | 152.02% | 19.80% | 136.65% | 14.64% | 130.32% | 138.62% | Akt phosphorylation (Akt phosphorylation): Akt phosphorylation was observed
CS(=O)(=O)N1CCN(Cc2cc3nc(-c4cccc5[nH]ncc45)nc(N4CCOCC4)c3s2)CC1 [GDC0941] | -14.7% | 7.03% | -17.3% | -0.14% | 21.2% | 29.8% | 58.9% | 64.8% | 124.43% | 133.55% | 19.20% | 121.46% | 134.46% | 140.39% | 156.27% | −27.15% | 104.45% | 0.41% | 125.94% | 126.85% | ATP production (LN229 or PC3 cells): reduced ATP production; glucose utilization (LN229 or PC3 cells): less glucose utilization; lactate production (LN229 or PC3 cells): less; Akt phosphorylation (Akt phosphorylation): Akt phosphorylation was observed
COc1ncc(-c2ccc3nccc(-c4ccnnc4)c3c2)cc1NS(=O)(=O)c1ccc(F)cc1F [GSK458] | 8.89% | 11.3% | 38.1% | 52.4% | 67.5% | 58.1% | 63.1% | 53.6% | 135.48% | 139.64% | 139.92% | 133.47% | 138.84% | 142.85% | 156.27% | 1.66% | 128.82% | 17.03% | 132.69% | 136.49% | 
FC(F)c1nc2ccccc2n1-c1nc(N2CCOCC2)nc(N2CCOCC2)n1 [ZSTK474] |  |  |  |  |  |  |  |  |  |  |  |  |  |  |  |  |  |  |  |  | PI3K activity (class I PI3K isoforms; 1 μM): 4.7 % of the control level; pIC50 (class I PI3K isoforms; class I PI3K isoforms, mostly PI3Kδ): 7.43

From patent US20240342199A1, “COMBINATION THERAPIES TARGETING MITOCHONDRIA FOR CANCER THERAPY” (The Wistar Institute of Anatomy and Biology, priority 2014, published 2024)
